For the first experiment, the system named is CDK4/6 protein. Kind of experiment: Western-blot determination of CDK4/6 protein degradation (DC50) in T-47D cells. The experiment is classed as cell-based, human. As to conditions: 24 h drug treatment, read-out: DC50(nM)/T-47D cell line.
With `CN(C)C(=O)c1cc2cnc(Nc3ccc(N4CCN(C(=O)CSc5cccc6c5C(=O)N(C5CCC(=O)NC5=O)C6=O)CC4)cn3)nc2n1C1CCCC1` (centres unmarked) [SIAIS219100, 7-cyclopentyl-2-((5-(4-(2-((2-(2,6-dioxopiperidin-3-yl)-1,3-dioxoisoindolin-4-yl)thio)acetyl)piperazin-1-yl)pyridin-2-yl)amino)-N,N-dimethyl-7H-pyrrolo[2,3-d]pyrimidine-6-carboxamide], the DC50 was less than 0.04 nM.

For the compound `CN(C)C(=O)c1cc2cnc(Nc3ccc(N4CCN(C(=O)CCSc5cccc6c5C(=O)N(C5CCC(=O)NC5=O)C6=O)CC4)cn3)nc2n1C1CCCC1` (centres unmarked) [SIAIS219101, 7-cyclopentyl-2-((5-(4-(3-((2-(2,6-dioxopiperidin-3-yl)-1,3-dioxoisoindolin-4-yl)thio)propanoyl)piperazin-1-yl)pyridin-2-yl)amino)-N,N-dimethyl-7H-pyrrolo[2,3-d]pyrimidine-6-carboxamide], the DC50 was less than 100 nM.

With `CN(C)C(=O)c1cc2cnc(Nc3ccc(N4CCN(C(=O)CCCSc5cccc6c5C(=O)N(C5CCC(=O)NC5=O)C6=O)CC4)cn3)nc2n1C1CCCC1` (centres unmarked) [SIAIS219102, 7-cyclopentyl-2-((5-(4-(4-((2-(2,6-dioxopiperidin-3-yl)-1,3-dioxoisoindolin-4-yl)thio)butanoyl)piperazin-1-yl)pyridin-2-yl)amino)-N,N-dimethyl-7H-pyrrolo[2,3-d]pyrimidine-6-carboxamide], the DC50 lay within 1 to 10 nM.

Take `CN(C)C(=O)c1cc2cnc(Nc3ccc(N4CCN(C(=O)CCCCSc5cccc6c5C(=O)N(C5CCC(=O)NC5=O)C6=O)CC4)cn3)nc2n1C1CCCC1` (centres unmarked) [SIAIS219103, 7-cyclopentyl-2-((5-(4-(5-((2-(2,6-dioxopiperidin-3-yl)-1,3-dioxoisoindolin-4-yl)thio)pentanoyl)piperazin-1-yl)pyridin-2-yl)amino)-N,N-dimethyl-7H-pyrrolo[2,3-d]pyrimidine-6-carboxamide]: the DC50 is less than 1 nM.

As to `CN(C)C(=O)c1cc2cnc(Nc3ccc(N4CCN(C(=O)CCCCCSc5cccc6c5C(=O)N(C5CCC(=O)NC5=O)C6=O)CC4)cn3)nc2n1C1CCCC1` (centres unmarked) [SIAIS219104, 7-cyclopentyl-2-((5-(4-(6-((2-(2,6-dioxopiperidin-3-yl)-1,3-dioxoisoindolin-4-yl)thio)hexanoyl)piperazin-1-yl)pyridin-2-yl)amino)-N,N-dimethyl-7H-pyrrolo[2,3-d]pyrimidine-6-carboxamide], the DC50 is 1 to 10 nM.

Regarding `CN(C)C(=O)c1cc2cnc(Nc3ccc(N4CCN(C(=O)COCCOCCSc5cccc6c5CN(C5CCC(=O)NC5=O)C6=O)CC4)cn3)nc2n1C1CCCC1` (centres unmarked) [SIAIS219107, 7-cyclopentyl-2-((5-(4-(2-(2-(2-((2-(2,6-dioxopiperidin-3-yl)-1-oxoisoindolin-4-yl)thio)ethoxy)ethoxy)acetyl)piperazin-1-yl)pyridin-2-yl)amino)-N,N-dimethyl-7H-pyrrolo[2,3-d]pyrimidine-6-carboxamide], the DC50 fell in the range of 0.04 to 0.2 nM.

On to `CN(C)C(=O)c1cc2cnc(Nc3ccc(N4CCN(C(=O)COCCOCCOCCSc5cccc6c5CN(C5CCC(=O)NC5=O)C6=O)CC4)cn3)nc2n1C1CCCC1` (centres unmarked) [SIAIS219108, 7-cyclopentyl-2-((5-(4-(2-(2-(2-(2-((2-(2,6-dioxopiperidin-3-yl)-1-oxoisoindolin-4-yl)thio)ethoxy)ethoxy)ethoxy)acetyl)piperazin-1-yl)pyridin-2-yl)amino)-N,N-dimethyl-7H-pyrrolo[2,3-d]pyrimidine-6-carboxamide], for which the DC50 is 0.04 to 0.2 nM.

Regarding `CN(C)C(=O)c1cc2cnc(Nc3ccc(N4CCN(C(=O)COCCOCCOCCOCCSc5cccc6c5CN(C5CCC(=O)NC5=O)C6=O)CC4)cn3)nc2n1C1CCCC1` (centres unmarked) [SIAIS219109, 7-cyclopentyl-2-((5-(4-(14-((2-(2,6-dioxopiperidin-3-yl)-1-oxoisoindolin-4-yl)thio)-3,6,9,12-tetraoxatetradecanoyl)piperazin-1-yl)pyridin-2-yl)amino)-N,N-dimethyl-7H-pyrrolo[2,3-d]pyrimidine-6-carboxamide], the DC50 was in the range of 1 to 10 nM.

Regarding `CN(C)C(=O)c1cc2cnc(Nc3ccc(N4CCN(C(=O)COCCOCCOCCOCCOCCSc5cccc6c5CN(C5CCC(=O)NC5=O)C6=O)CC4)cn3)nc2n1C1CCCC1` (centres unmarked) [SIAIS219110, 7-cyclopentyl-2-((5-(4-(17-((2-(2,6-dioxopiperidin-3-yl)-1-oxoisoindolin-4-yl)thio)-3,6,9,12,15-pentaoxaheptadecanoyl)piperazin-1-yl)pyridin-2-yl)amino)-N,N-dimethyl-7H-pyrrolo[2,3-d]pyrimidine-6-carboxamide], the DC50 is 0.04 to 0.2 nM.

Turning to `CN(C)C(=O)c1cc2cnc(Nc3ccc(N4CCN(C(=O)COCCOCCSc5cccc6c5C(=O)N(C5CCC(=O)NC5=O)C6=O)CC4)cn3)nc2n1C1CCCC1` (centres unmarked) [SIAIS219112, 7-cyclopentyl-2-((5-(4-(2-(2-(2-((2-(2,6-dioxopiperidin-3-yl)-1,3-dioxoisoindolin-4-yl)thio)ethoxy)ethoxy)acetyl)piperazin-1-yl)pyridin-2-yl)amino)-N,N-dimethyl-7H-pyrrolo[2,3-d]pyrimidine-6-carboxamide], the DC50 lay in the range of 0.04 to 0.2 nM.

Turning to `CN(C)C(=O)c1cc2cnc(Nc3ccc(N4CCN(C(=O)COCCOCCOCCSc5cccc6c5C(=O)N(C5CCC(=O)NC5=O)C6=O)CC4)cn3)nc2n1C1CCCC1` (centres unmarked) [SIAIS219113, 7-cyclopentyl-2-((5-(4-(2-(2-(2-(2-((2-(2,6-dioxopiperidin-3-yl)-1,3-dioxoisoindolin-4-yl)thio)ethoxy)ethoxy)ethoxy)acetyl)piperazin-1-yl)pyridin-2-yl)amino)-N,N-dimethyl-7H-pyrrolo[2,3-d]pyrimidine-6-carboxamide], the DC50 is less than 1 nM.

With `CN(C)C(=O)c1cc2cnc(Nc3ccc(N4CCN(C(=O)COCCOCCOCCOCCSc5cccc6c5C(=O)N(C5CCC(=O)NC5=O)C6=O)CC4)cn3)nc2n1C1CCCC1` (centres unmarked) [SIAIS219114, 7-cyclopentyl-2-((5-(4-(14-((2-(2,6-dioxopiperidin-3-yl)-1,3-dioxoisoindolin-4-yl)thio)-3,6,9,12-tetraoxatetradecanoyl)piperazin-1-yl)pyridin-2-yl)amino)-N,N-dimethyl-7H-pyrrolo[2,3-d]pyrimidine-6-carboxamide], the DC50 was in the range of 1 to 10 nM.

As for `Cc1nc2c(F)cc(-c3nc(Nc4ccc(CN5CCN(C(=O)CSc6cccc7c6CN(C6CCC(=O)NC6=O)C7=O)CC5)cn4)ncc3F)cc2n1C(C)C` (centres unmarked) [SIAIS262164, 3-(4-((2-(4-((6-((5-fluoro-4-(4-fluoro-1-isopropyl-2-methyl-1H-benzo[d]imidazol-6-yl)pyrimidin-2-yl)amino)pyridin-3-yl)methyl)piperazin-1-yl)-2-oxoethyl)thio)-1-oxoisoindolin-2-yl)piperidine-2,6-dione], the DC50 was 0.5 to 5 nM.

As to `Cc1nc2c(F)cc(-c3nc(Nc4ccc(CN5CCN(C(=O)CCSc6cccc7c6CN(C6CCC(=O)NC6=O)C7=O)CC5)cn4)ncc3F)cc2n1C(C)C` (centres unmarked) [SIAIS262165, 3-(4-((3-(4-((6-((5-fluoro-4-(4-fluoro-1-isopropyl-2-methyl-1H-benzo[d]imidazol-6-yl)pyrimidin-2-yl)amino)pyridin-3-yl)methyl)piperazin-1-yl)-3-oxopropyl)thio)-1-oxoisoindolin-2-yl)piperidine-2,6-dione], the DC50 was 5 nM.

Turning to `Cc1nc2c(F)cc(-c3nc(Nc4ccc(CN5CCN(C(=O)CCCSc6cccc7c6CN(C6CCC(=O)NC6=O)C7=O)CC5)cn4)ncc3F)cc2n1C(C)C` (centres unmarked) [SIAIS262166, 3-(4-((4-(4-((6-((5-fluoro-4-(4-fluoro-1-isopropyl-2-methyl-1H-benzo[d]imidazol-6-yl)pyrimidin-2-yl)amino)pyridin-3-yl)methyl)piperazin-1-yl)-4-oxobutyl)thio)-1-oxoisoindolin-2-yl)piperidine-2,6-dione], the DC50 lay in the range of 0.5 to 5 nM.

Turning to `Cc1nc2c(F)cc(-c3nc(Nc4ccc(CN5CCN(C(=O)CCCCSc6cccc7c6CN(C6CCC(=O)NC6=O)C7=O)CC5)cn4)ncc3F)cc2n1C(C)C` (centres unmarked) [SIAIS262167, 3-(4-((5-(4-((6-((5-fluoro-4-(4-fluoro-1-isopropyl-2-methyl-1H-benzo[d]imidazol-6-yl)pyrimidin-2-yl)amino)pyridin-3-yl)methyl)piperazin-1-yl)-5-oxopentyl)thio)-1-oxoisoindolin-2-yl)piperidine-2,6-dione], the DC50 lay in the range of 0.5 to 5 nM.

With `Cc1nc2c(F)cc(-c3nc(Nc4ccc(CN5CCN(C(=O)CCCCCSc6cccc7c6CN(C6CCC(=O)NC6=O)C7=O)CC5)cn4)ncc3F)cc2n1C(C)C` (centres unmarked) [SIAIS262168, 3-(4-((6-(4-((6-((5-fluoro-4-(4-fluoro-1-isopropyl-2-methyl-1H-benzo[d]imidazol-6-yl)pyrimidin-2-yl)amino)pyridin-3-yl)methyl)piperazin-1-yl)-6-oxohexyl)thio)-1-oxoisoindolin-2-yl)piperidine-2,6-dione], the DC50 was 0.05 to 0.5 nM.

Staying with this experiment, now noted: read-out: DC50(nM)/T-47D cell line, 24 h drug treatment.
Consider `CN(C)C(=O)c1cc2cnc(Nc3ccc(N4CCN(C(=O)CCCCCCSc5cccc6c5C(=O)N(C5CCC(=O)NC5=O)C6=O)CC4)cn3)nc2n1C1CCCC1` (centres unmarked) [SIAIS219105, 7-cyclopentyl-2-((5-(4-(7-((2-(2,6-dioxopiperidin-3-yl)-1,3-dioxoisoindolin-4-yl)thio)heptanoyl)piperazin-1-yl)pyridin-2-yl)amino)-N,N-dimethyl-7H-pyrrolo[2,3-d]pyrimidine-6-carboxamide], for which the DC50 is 0.04 to 0.2 nM.

As to `CN(C)C(=O)c1cc2cnc(Nc3ccc(N4CCN(C(=O)COCCSc5cccc6c5CN(C5CCC(=O)NC5=O)C6=O)CC4)cn3)nc2n1C1CCCC1` (centres unmarked) [SIAIS219106, 7-cyclopentyl-2-((5-(4-(2-(2-((2-(2,6-dioxopiperidin-3-yl)-1-oxoisoindolin-4-yl)thio)ethoxy)acetyl)piperazin-1-yl)pyridin-2-yl)amino)-N,N-dimethyl-7H-pyrrolo[2,3-d]pyrimidine-6-carboxamide], the DC50 is 0.04 to 0.2 nM.

Consider `CN(C)C(=O)c1cc2cnc(Nc3ccc(N4CCN(C(=O)COCCSc5cccc6c5C(=O)N(C5CCC(=O)NC5=O)C6=O)CC4)cn3)nc2n1C1CCCC1` (centres unmarked) [SIAIS219111, 7-cyclopentyl-2-((5-(4-(2-(2-((2-(2,6-dioxopiperidin-3-yl)-1,3-dioxoisoindolin-4-yl)thio)ethoxy)acetyl)piperazin-1-yl)pyridin-2-yl)amino)-N,N-dimethyl-7H-pyrrolo[2,3-d]pyrimidine-6-carboxamide], for which the DC50 was less than 1 nM.

(Values after patent US12226424B2, “Target protein degradation compounds, their anti-tumor use, their intermediates and use of intermediates” (ShanghaiTech University, priority 2018, dated 2025).)
